Reference: PubChem BioAssay AID330 (DTP/NCI, 2004)
Several values for one entry are separate records, joined by “and”; a condition that tells them apart may be missing. Identical values can stand only once. Toxic doses and inconclusive results are not listed. Rule for the calls: active = survival T/C of 150% or more; inactive = T/C below 125% in these data.

System: P388 leukemia ip, CD2F1 mice, survival T/C
Experiment: NCI In Vivo Anticancer Drug Screen. Data for tumor model P388 Leukemia (intraperitoneal) in CD2F1 (CDF1) mice
Conditions: endpoint: median survival time, higher = longer survival
In short: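 Mice carrying the transplanted tumor received test compound or vehicle. Survival was recorded in each group, and the value is the treated-group measurement divided by that of the vehicle-treated control group.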

[1] = dose: 50.0 mg/kg/injection, schedule: Q01DX009 (ip), vehicle: saline with Tween-80
[2] = dose: 100.0 mg/kg/injection, schedule: Q01DX009 (ip), vehicle: saline with Tween-80
[3] = dose: 200.0 mg/kg/injection, schedule: Q01DX009 (ip), vehicle: saline with Tween-80
[4] = dose: 50.0 mg/kg/injection, schedule: Q01DX005 (ip), vehicle: saline with Tween-80
[5] = dose: 100.0 mg/kg/injection, schedule: Q01DX005 (ip), vehicle: saline with Tween-80
[6] = dose: 200.0 mg/kg/injection, schedule: Q01DX005 (ip), vehicle: saline with Tween-80
[7] = dose: 60.0 mg/kg/injection, schedule: Q01DX005 (ip), vehicle: saline with Tween-80
[8] = dose: 120.0 mg/kg/injection, schedule: Q01DX005 (ip), vehicle: saline with Tween-80
[9] = dose: 240.0 mg/kg/injection, schedule: Q01DX005 (ip), vehicle: saline with Tween-80
[10] = dose: 50.0 mg/kg/injection, schedule: Q01DX009 (ip), vehicle: Klucel (hydroxypropylcellulose) (HPC)
[11] = dose: 100.0 mg/kg/injection, schedule: Q01DX009 (ip), vehicle: Klucel (hydroxypropylcellulose) (HPC)
[12] = dose: 50.0 mg/kg/injection, schedule: Q01DX005 (ip), vehicle: Klucel (hydroxypropylcellulose) (HPC)
[13] = dose: 100.0 mg/kg/injection, schedule: Q01DX005 (ip), vehicle: Klucel (hydroxypropylcellulose) (HPC)
[14] = dose: 200.0 mg/kg/injection, schedule: Q01DX005 (ip), vehicle: Klucel (hydroxypropylcellulose) (HPC)
[15] = dose: 50.0 mg/kg/injection, schedule: Q01DX005 (ip), vehicle: saline
[16] = dose: 100.0 mg/kg/injection, schedule: Q01DX005 (ip), vehicle: saline

Measured: T/C

CC(N)c1ccccc1 (centres undefined) (tested in a mixture with another compound)
inactive: [1] 104 % of control | [2] 99 % of control | [3] 99 % of control

COc1ccccc1C1=[N+]([O-])C(C)(C)C(c2ccccc2)C1 (centres undefined)
inactive: dose: 100.0 mg/kg/injection, schedule: Q04DX002 (ip), vehicle: Klucel (hydroxypropylcellulose) (HPC) 104 % of control | dose: 200.0 mg/kg/injection, schedule: Q04DX002 (ip), vehicle: Klucel (hydroxypropylcellulose) (HPC) 102 % of control

O=C1C=CC(=Nc2ccc3c(c2)C(=O)c2ccccc2-3)O1
inactive: [4] 111 % of control | [5] 115 % of control

CCCCC(CC)(CCN)CCCC
inactive: dose: 5.0 mg/kg/injection, schedule: Q01DX009 (ip), vehicle: suspension in saline 107 % of control | dose: 10.0 mg/kg/injection, schedule: Q01DX009 (ip), vehicle: suspension in saline 103 % of control | dose: 20.0 mg/kg/injection, schedule: Q01DX009 (ip), vehicle: suspension in saline 90 % of control

CCCCCCCCCCCCCC(=O)OCCN1CCN(CCCN2c3ccccc3Sc3ccc(C(F)(F)F)cc32)CC1
inactive: dose: 3.12 mg/kg/injection, schedule: Q01DX009 (ip), vehicle: saline with Tween-80 106 % of control | dose: 6.25 mg/kg/injection, schedule: Q01DX009 (ip), vehicle: saline with Tween-80 102 % of control | dose: 12.5 mg/kg/injection, schedule: Q01DX009 (ip), vehicle: saline with Tween-80 112 % of control and 113 % of control | dose: 25.0 mg/kg/injection, schedule: Q01DX009 (ip), vehicle: saline with Tween-80 116 % of control

C=COC(=O)C(Cc1cccs1)NC(=O)OCc1ccccc1 (centres undefined)
inactive: [4] 101 % of control | [5] 96 % of control | [6] 95 % of control

CSC(=S)n1nc(-c2ccccc2)c(N=Nc2ccc(C)cc2)c1-c1ccccc1
inactive: [4] 98 % of control | [5] 91 % of control | [6] 93 % of control

COC(=O)C(/C=[N+](\[O-])C1CCCCC1)=C(\C=[N+](/[O-])C1CCCCC1)C(=O)OC
inactive: [7] 102 % of control | [8] 87 % of control | [9] 91 % of control

Cc1ccc(C)c(NC(=O)Nc2ccc(C(=O)O)cc2)c1
inactive: [10] 105 % of control | [11] 105 % of control | dose: 200.0 mg/kg/injection, schedule: Q01DX009 (ip), vehicle: Klucel (hydroxypropylcellulose) (HPC) 102 % of control

COC1(OC)/C(=C/Cl)CC2(C)C(=O)NC(=O)C21Cl (centres undefined)
inactive: dose: 25.0 mg/kg/injection, schedule: Q01DX005 (ip), vehicle: Klucel (hydroxypropylcellulose) (HPC) 106 % of control | [12] 105 % of control | [13] 105 % of control | [14] 106 % of control

O=C1CSCC(=O)OCCOCCOCCO1
inactive: dose: 100.0 mg/kg/injection, schedule: Q04DX003 (ip), vehicle: suspension in saline 104 % of control | dose: 200.0 mg/kg/injection, schedule: Q04DX003 (ip), vehicle: suspension in saline 101 % of control | dose: 400.0 mg/kg/injection, schedule: Q04DX003 (ip), vehicle: suspension in saline 101 % of control

COc1ccc2c(c1OC)CN(C)[C@]13ON(c4ccccc4)[C@H](C[C@]21C)c1cc2c(cc13)OCO2
inactive: dose: 100.0 mg/kg/injection, schedule: Q04DX002 (ip), vehicle: saline with Tween-80 98 % of control | dose: 200.0 mg/kg/injection, schedule: Q04DX002 (ip), vehicle: saline with Tween-80 88 % of control | dose: 400.0 mg/kg/injection, schedule: Q04DX002 (ip), vehicle: saline with Tween-80 95 % of control

N/C(=N\OC(=O)Nc1ccccc1)c1ccccc1
inactive: [7] 97 % of control | [8] 94 % of control | [9] 91 % of control

ClCc1nnc(-c2ccccc2)o1
inactive: [10] 100 % of control | [11] 95 % of control

CCCCN(CCCC)CC(C)(O)CNc1cc(OC)cc2cccnc12 (centres undefined)
inactive: dose: 25.0 mg/kg/injection, schedule: Q01DX005 (ip), vehicle: saline 101 % of control | [15] 107 % of control | [16] 98 % of control

NC(N)=NS(=O)(=O)c1ccc(N=Cc2c3ccccc3nc3cc(Cl)ccc23)cc1
inactive: [7] 91 % of control | [8] 91 % of control | [9] 91 % of control

CC(=O)Oc1c[nH]c(=O)[nH]c1=O
inactive: dose: 25.0 mg/kg/injection, schedule: Q01DX009 (ip), vehicle: distilled water + Tween-80 103 % of control and 97 % of control | dose: 50.0 mg/kg/injection, schedule: Q01DX009 (ip), vehicle: distilled water + Tween-80 100 % of control and 97 % of control | dose: 100.0 mg/kg/injection, schedule: Q01DX009 (ip), vehicle: distilled water + Tween-80 102 % of control and 103 % of control and 112 % of control | dose: 200.0 mg/kg/injection, schedule: Q01DX009 (ip), vehicle: distilled water + Tween-80 109 % of control and 114 % of control and 119 % of control | dose: 400.0 mg/kg/injection, schedule: Q01DX009 (ip), vehicle: distilled water + Tween-80 103 % of control and 123 % of control

Cc1ccc(O)c(C(c2ccc3c(c2)OCO3)N2CCOCC2)c1 (centres undefined)
inactive: [7] 101 % of control | [8] 100 % of control | [9] 97 % of control

CCOC(=O)N1C2CCC1C(C)C(=O)C2 (centres undefined)
inactive: [15] 96 % of control | [16] 96 % of control and 104 % of control | dose: 200.0 mg/kg/injection, schedule: Q01DX005 (ip), vehicle: saline 94 % of control

COc1ccc(C(=O)N/N=C2\C(=O)c3c(C)cc(C)cc3CC2(C)C)cc1
inactive: dose: 50.0 mg/kg/injection, schedule: Q01DX009 (ip), vehicle: saline 100 % of control | dose: 100.0 mg/kg/injection, schedule: Q01DX009 (ip), vehicle: saline 100 % of control | dose: 200.0 mg/kg/injection, schedule: Q01DX009 (ip), vehicle: saline 94 % of control

O=C(S)c1ccc(Cl)c(Cl)c1
inactive: [4] 90 % of control | [5] 87 % of control | [6] 92 % of control

CC(=Nc1c[nH]c(=O)[nH]c1=O)c1ccccc1
inactive: dose: 100.0 mg/kg/injection, schedule: Q04DX002 (ip), vehicle: suspension in saline 104 % of control | dose: 200.0 mg/kg/injection, schedule: Q04DX002 (ip), vehicle: suspension in saline 101 % of control | dose: 400.0 mg/kg/injection, schedule: Q04DX002 (ip), vehicle: suspension in saline 94 % of control

CCOC(=O)CC(C)C#N (centres undefined)
inactive: [1] 99 % of control | [2] 99 % of control | [3] 101 % of control

CCN(CCO)CC1CCCC2CCCCC21 (centres undefined)
inactive: dose: 60.0 mg/kg/injection, schedule: Q01DX005 (ip), vehicle: saline 92 % of control | dose: 120.0 mg/kg/injection, schedule: Q01DX005 (ip), vehicle: saline 98 % of control

Cc1c(-c2ccccc2)nnn1-c1ccc(F)cc1F
inactive: [7] 101 % of control | [8] 99 % of control | [9] 92 % of control

COCCOC(=O)Nc1c(Cl)cccc1Cl
inactive: [7] 98 % of control | [8] 100 % of control | [9] 100 % of control

Cc1ccc(S(=O)(=O)NC(=O)n2nc(C)cc2C)cc1
inactive: [12] 96 % of control | [13] 96 % of control | [14] 103 % of control

CS(=O)(=O)OC1CC(Cl)CO1 (centres undefined)
inactive: dose: 100.0 mg/kg/injection, schedule: Q04DX003 (ip), vehicle: Klucel (hydroxypropylcellulose) (HPC) 100 % of control | dose: 200.0 mg/kg/injection, schedule: Q04DX003 (ip), vehicle: Klucel (hydroxypropylcellulose) (HPC) 100 % of control | dose: 400.0 mg/kg/injection, schedule: Q04DX003 (ip), vehicle: Klucel (hydroxypropylcellulose) (HPC) 103 % of control
